Common to all, as to assay type: cell-based
The test system of one test is Raw 264.7 cells. Description: Raw cells activation, FACS of activation markers CD80, CD40, CD86, MHC-II. The following applies: 24 h and 48 h, compared to negative control and other peptides. The procedure:
Additional testing was carried out to verify the activation levels if the peptides using expression level of activation markers. Raw cells were activated using the peptides of SEQ ID Nos. 1, 4 and 5 and a control peptide. The analysis of the activation level was done by examining the expression level of few activation markers. In order to verify the obtained results, two repeats were done. Standard Raw cells activation and FACS staining protocol were carried out.
The following describes the experimental design in detail. 5-7.5X10^6 Raw 264.7 cells were seeded in 6-well plates 24 h prior to the stimulation in 3ml/well of DMEM containing 4 mmol/L glutamine and 10% heat-inactivated FCS. At the next day, cells were treated with bacterial LPS (10 or 100 ng/ml, E coli, sigma) as positive control, and with peptides SEQ ID Nos. 1, 4, 5 and the control peptide (50, 100 and 200 μM for each peptide). The volume of the incubation was 1.5 ml for each well. After 24 or 48 h (two experiments), the concentrations of nitrite were measured in the culture supernatant by the Griess assay while absorbance was read at 550 nm. Simultaneously, the cells were stained for surface receptors: CD40, CD80, CD86 and MHC-II with the appropriate antibodies (biolegend) and analysed by flow cytometry using FSC express 3 software. […]

The test system of test [1] is TLR4 with MD2 or CD14 co-receptor. Description: Reporter gene (SEAP) PAMP assay in NIH3T3 cells expressing TLR4 with MD2 or CD14 co-receptor. Also noted: key to PAMP assay (NIH3T3 cells) Induction with compound alone / PAMP assay (NIH3T3 cells) Induction with compound + LPS: 0: no effect of the compound alone/no effect of the compound in addition to LPS alone; +: small effect of the compound alone/small effect of the compound in addition to LPS alone; ++: intermediate effect of the comp. alone/intermediate effect of the comp. in add. to LPS alone; +++: strong effect of the compound alone/strong effect of the compound in addition to LPS alone. Conditions: for Co-Receptor/s: co-receptor (MD2/CD14) via which the effect occurs; for Co-Receptor/s / Activity: summary of FIGS. 6A-6V; for Activity: type of effect (activation/inhibition) on TLR4. An excerpt: FIGS. 6A-6V show the dose response inhibitor/activator effects of the designed peptides using a reporter gene assay. The reporter gene assay is composed of NIH3T3 cells transfected with either MD2 or CD14 along with TLR4 and the NF-κB-inducible reporter gene Secreted Alkaline Phosphatase (SEAP) to monitor TLR4 activation (Burger-[…] al. 2010, A new cell-based innate immune receptor assay for the examination of receptor activity, ligand specificity, signaling pathways and the detection of pyrogens. […] The receptors are coupled to for the detection of inhibitory activity, cells were treated with the peptide prior to exposure to LPS and the response to LPS is measured at variable peptide doses (as labeled). The detection of cell activation was performed using the peptide alone, at variable doses, as indicated in the respective graphs. The following presents in more details the experimental procedures. Experimental setup: The cell-based Assay is performed with different NIH3T3 reporter cell lines (NIH 3T3 PRR SEAP-TLR4/CD14 or -TLR4/MD2) and the control cell line NIH 3T3 SEAP. The NIH3T3 SEAP cell line is used in order to determine the background of the alkaline phosphatase expression. It is a cell line stably transfected with only the reporter gene plasmid. For each assay a vial of the master cell bank is revitalized and seeded in a standard cell culture flask (75 cm^2 T-Flask) at day one. Cells are cultured in 20 ml culture media (DMEM supplemented with 10% FCS (heat inactivated), 50 units/ ml penicillin, 0.05 mg/ ml streptomycin and 2 mmol/ L L-glutamine). The cells are cultured at 37° C. in a 5% CO2 humidified atmosphere. At Day 1: For the PAMP Assay cells are seeded in a 96-well plate at a density of 0.3.10^5 cells/well in a final volume of 100 μl culture media (DMEM, 10% FCS (heat inactivated)). To ensure equal culture conditions the 96-well cell culture plates are placed side by side and cultivated in a humidified CO2 incubator (37° C. and 5% CO2). […] After a cultivation period of 24 h the media is removed and replaced with the respective volume of fresh media (DMEM, 0.5% FCS (heat inactivated)).The lyophilized peptides are stored in a freezer at -20° C. upon arrival. For the experiments they are dissolved in DMSO (to the highest possible concentration). Before opening the peptides are allowed to equilibrate to room temperature (in order to reduce the uptake of moisture). For each experiment the stock solution is diluted in DMEM to the appropriate working concentration. […] Sonication was also used to help dissolve the peptides. Immediately after replacing the media, the diluted peptides are applied in a serial dilution to the cells and directly after that the agonist is added to the cells. After adding peptide and […] the final volume in each well of a 96 well plate amounts 100 μl/well. The culture medium containing 0.5% FCS is used as a negative reference item. The induction is performed for 18 h at 37° C. and 5% CO2. At Day 3: To determine the final SEAP value, 50 μl of the supernatant is carefully transferred in a new 96-well plate (Greiner-F-plate) and 50 μl of the substrate (pNPP; p-nitrophenyl phosphate) is added. SEAP catalyzes the hydrolysis of pNPP to the final product para-nitrophenol (yellow) which can be detected by a photometric analysis using an UV-VIS reader at 405 nm. […] The results of FIGS. 6A-6V with respect to peptide activity are summarized in Table 1 above with respect to the type of effect of the respective peptide (activation/inhibition) and with respect to the corresponding co-receptor (MD2/CD14). Data concerning SEQ ID No. 22 with respect to co-receptor CD14 is in preparation.
(In general: In a reporter assay the amount or activity of a reporter protein is the signal.)

For the next test, the system named is whole human blood. Description: IL-1β ELISA after 24-hour incubation with whole human blood. Also noted: key: 0: no effect of the compound alone/no effect of the compound in addition to LPS alone; +: small effect of the compound alone/small effect of the compound in addition to LPS alone; ++: intermediate effect of the comp. alone/intermediate effect of the comp. in add. to LPS alone; +++: strong effect of the compound alone/strong effect of the compound in addition to LPS alone. The following applies: for IL-1β ELISA after blood activation Induction with compound + LPS: LPS 100 pg/ml. The procedure: One attribute of TLR-4 activation is the release of the pro-inflammatory cytokine Interleukin-1β (IL1β). Several of our discovered peptides were tested for IL1β induction by ELISA following a 24-hour incubation with whole human blood. IL1β induction was measured with increasing dosage of the peptides alone, or with a fixed dosage of LPS (100 pg/ml).

Another test concerns the target T1, TLR4/MD2 (Homo sapiens, UniProt O00206+Q9Y6Y9).
T1 construct: expressed in transfected cells; host or cells: NIH3T3 (NIH 3T3 PRR SEAP-TLR4/MD2)
Description: Reporter gene assay, NIH3T3 cells TLR4 with MD2 co-receptor. An excerpt: FIGS. 6A-6V present peptide activity using NIH3T3 cells that express TLR4, with either the MD2 co-receptor (top) or CD14 co-receptor (bottom), for peptides of SEQ ID Nos. 1-22, respectively, according to some embodiments of the invention. FIGS. 6A-6V show the dose response inhibitor/activator effects of the designed peptides using a reporter gene assay. The reporter gene assay is composed of NIH3T3 cells transfected with either MD2 or CD14 along with TLR4 and the NF-κB-inducible reporter gene Secreted Alkaline Phosphatase (SEAP) to monitor TLR4 activation (Burger-Kentischer et al. 2010, A new cell-based innate immune receptor assay for the examination of receptor activity, ligand specificity, signaling pathways and the detection of pyrogens. J Immunol Methods. 358(1-2): 93-103). […] The receptors are coupled to for the detection of inhibitory activity, cells were treated with the peptide prior to exposure to LPS and the response to LPS is measured at variable peptide doses (as labeled). […]
At Day 3: To determine the final SEAP value, 50 μl of the supernatant is carefully transferred in a new 96-well plate (Greiner-F-plate) and 50 μl of the substrate (pNPP; p-nitrophenyl phosphate) is added. SEAP catalyzes the hydrolysis of pNPP to the final product para-nitrophenol (yellow) which can be detected by a photometric analysis using an UV-VIS reader at 405 nm. […]

This is an account of results in patent publication US20200247849A1, “PEPTIDE AGONISTS AND ANTAGONISTS OF TLR4 ACTIVATION” (PEPTICOM LTD, priority 2016, published 2020).

No end group written: not given here.

T1 sequence (O00206 24-839): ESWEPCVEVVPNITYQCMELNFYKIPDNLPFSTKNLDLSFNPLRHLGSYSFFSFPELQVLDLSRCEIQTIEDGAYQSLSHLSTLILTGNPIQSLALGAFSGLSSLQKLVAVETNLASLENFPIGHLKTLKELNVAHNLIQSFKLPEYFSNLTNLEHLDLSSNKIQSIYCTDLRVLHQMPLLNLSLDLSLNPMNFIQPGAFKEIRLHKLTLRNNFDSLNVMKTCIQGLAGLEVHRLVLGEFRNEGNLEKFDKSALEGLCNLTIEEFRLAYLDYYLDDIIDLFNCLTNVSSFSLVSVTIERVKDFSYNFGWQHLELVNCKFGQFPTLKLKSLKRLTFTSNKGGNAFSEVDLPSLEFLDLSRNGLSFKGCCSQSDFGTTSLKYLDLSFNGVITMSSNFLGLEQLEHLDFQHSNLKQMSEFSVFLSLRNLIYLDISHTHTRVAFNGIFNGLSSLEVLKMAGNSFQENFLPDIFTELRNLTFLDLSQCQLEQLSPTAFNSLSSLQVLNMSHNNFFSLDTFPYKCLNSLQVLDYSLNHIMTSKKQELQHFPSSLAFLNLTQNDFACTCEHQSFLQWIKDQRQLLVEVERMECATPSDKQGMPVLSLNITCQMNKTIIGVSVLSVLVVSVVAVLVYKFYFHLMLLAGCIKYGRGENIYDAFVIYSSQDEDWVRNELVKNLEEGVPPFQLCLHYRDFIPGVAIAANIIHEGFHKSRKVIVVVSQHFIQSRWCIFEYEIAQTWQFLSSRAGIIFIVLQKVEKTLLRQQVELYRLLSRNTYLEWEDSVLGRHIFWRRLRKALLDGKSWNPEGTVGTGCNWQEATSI
T1 sequence (Q9Y6Y9 19-160): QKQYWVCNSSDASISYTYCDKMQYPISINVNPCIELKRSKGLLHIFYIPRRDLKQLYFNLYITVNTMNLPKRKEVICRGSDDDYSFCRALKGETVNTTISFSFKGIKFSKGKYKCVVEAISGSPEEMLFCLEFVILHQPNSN

On to LAWYFGRKIKE (Inhibitor) [SEQ ID No. 11], for which, in the test on Raw 264.7 cells, the “stimulation of raw cells (expression of activation markers)” value is listed as “most promising stimulator”. Also, in test [1], the Co-Receptor/s entry is listed as “MD2” and the Activity entry is “Inhibitor”.

For “RYETMSIMIKSGGKY (not fully specified) [SEQ ID No. 1 (M1)]”, in the test on whole human blood, the “IL-1β ELISA after blood activation Induction with compound + LPS” value (shortened to “IL-1β ELISA … with compound + LPS”) is “+++” and the “IL-1β ELISA after blood activation Induction with compound alone” value (“IL-1β ELISA … with compound alone” for short) is “++”. Besides, in test [1], the Co-Receptor/s entry is given as “MD2/CD14”, the “PAMP assay (NIH3T3 cells) Induction with compound + LPS” value (“PAMP assay … with compound + LPS” below) is “+”, the “PAMP assay (NIH3T3 cells) Induction with compound alone” value (from here on “PAMP assay … with compound alone”) was “+” and the Activity result was “Activator”.

For the substance “RYETMSIMIKSGGKY-(methyl group replacing C-terminus) (RYETMSIMIKSGGKY-CH3) [SEQ ID No. 1 (M2)]”, in the test on whole human blood, the “IL-1β ELISA … with compound + LPS” value was 0 and the “IL-1β ELISA … with compound alone” value is 0. Besides, in test [1], the Co-Receptor/s entry was “MD2/CD14”, the “PAMP assay … with compound + LPS” value is “+”, the “PAMP assay … with compound alone” value is “+” and the Activity entry is listed as “Activator”.

“c[MLSFRM] (cyclic; Activator, cyclic) [SEQ ID No. 6]”: in the test on whole human blood, the “IL-1β ELISA … with compound + LPS” value is “+++” and the “IL-1β ELISA … with compound alone” value is recorded as “+”. In test [1], the Co-Receptor/s entry is “MD2/CD14”, the “PAMP assay … with compound + LPS” value is “++”, the “PAMP assay … with compound alone” value is listed as “++” and the Activity result is recorded as “Activator”.

On to “c[WMLGMESI] (cyclic; Activator, cyclic) [SEQ ID No. 7]”, for which, in the test with TLR4/MD2, the “activation with respect to MD2” value is recorded as “weak activator”. Moreover, in test [1], the Co-Receptor/s result is given as “CD14” and the Activity entry was “Activator”.
